Data on eight molecules can be found in patent US20240058422A1, “GLUCAGON-LIKE PEPTIDE-1 RECEPTOR ANTAGONISTS” (INDIANA UNIVERSITY RESEARCH AND TECHNOLOGY CORPORATION, priority 2022, published 2024).

The term solubility denotes how much of the substance goes into solution per volume. High values mean a readily soluble substance, low ones a poorly soluble substance.

SMILES strings stand for the structures. Values after ≈ are worked out from the molar mass of the structure shown. Where two headings read alike, the source gives them in different places. Starred links: 1 amine or outer side, 2 acyl side, 3 side chain; linkers in the order of their positions; H or OH if unused. Non-standard residues stand in square brackets, D forms with d. Residues, ends and D or L forms follow the SMILES beside them. Groups on a side chain read outwards from the residue. *: point of attachment. γGlu = O=C(O)[C@H](CCC(=O)[*:2])N[*:1]; Palmitoyl = CCCCCCCCCCCCCCCC(=O)*; AEEA = NCCOCCOCC(=O)O

One data set deals with GLP-1R (Homo sapiens, UniProt P43220). The data set can be described thus: GLP-1 receptor-mediated cAMP induction, luciferase reporter gene antagonism assay. The data set is classed as cell-based. Also on record: host or cells: HEK 293. The settings on record: antagonism of 0.05 nM GLP-1, HEK 293 cells. An outline of the steps:
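HEK 293 cells cotransfected with human GLP-1 receptor and CRE-luciferase were serum-deprived 16 h, then given serial peptide dilutions followed by 0.05 nM GLP-1 and incubated 5 h at 37° C.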

Setting [1] is: pH 7.7, Solubility [mg/mL] 80 mM AmBicarb pH7.7.
The mark [2] stands for this setting: pH 7.7, Solubility 80 mM AmeBicarb pH7.7.
[3] abbreviates: Table 3, amino acid substitution variants of Jant4-K40, read-out: Bioactivity IC50.

GLP-1R, sequence (P43220 24-463): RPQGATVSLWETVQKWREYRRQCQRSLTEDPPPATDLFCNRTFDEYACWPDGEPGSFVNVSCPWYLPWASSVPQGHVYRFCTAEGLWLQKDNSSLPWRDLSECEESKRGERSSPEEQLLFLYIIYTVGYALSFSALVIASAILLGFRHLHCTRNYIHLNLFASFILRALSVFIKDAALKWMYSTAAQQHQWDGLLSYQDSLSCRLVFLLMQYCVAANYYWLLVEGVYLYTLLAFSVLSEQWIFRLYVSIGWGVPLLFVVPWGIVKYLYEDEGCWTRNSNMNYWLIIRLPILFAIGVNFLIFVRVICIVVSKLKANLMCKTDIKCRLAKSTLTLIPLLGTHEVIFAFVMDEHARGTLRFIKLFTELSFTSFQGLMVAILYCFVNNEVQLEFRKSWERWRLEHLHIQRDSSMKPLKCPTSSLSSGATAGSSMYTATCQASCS

For the molecule `CCCCCCCCCCCCCCCC(=O)NCCCC[C@H](NC(=O)[C@H](CO)NC(=O)[C@@H]1CCCN1C(=O)[C@@H]1CCCN1C(=O)[C@@H]1CCCN1C(=O)[C@H](C)NC(=O)CNC(=O)[C@H](CO)NC(=O)[C@H](CO)NC(=O)[C@@H]1CCCN1C(=O)CNC(=O)CNC(=O)C(C)(C)NC(=O)[C@H](CCCCN)NC(=O)[C@H](CC(C)C)NC(=O)[C@H](Cc1c[nH]c2ccccc12)NC(=O)[C@H](C)NC(=O)[C@@H](NC(=O)[C@H](Cc1ccccc1)NC(=O)[C@H](CCC(=O)O)NC(=O)[C@H](CCCNC(=N)N)NC(=O)[C@@H](NC(=O)[C@H](C)NC(=O)[C@H](CCC(N)=O)NC(=O)[C@H](CCC(=O)O)NC(=O)[C@H](CCC(=O)O)NC(=O)[C@H](CC(C)C)NC(=O)[C@H](Cc1ccc(O)cc1)NC(=O)[C@H](CO)NC(=O)[C@H](CO)NC(=O)[C@@H](NC(=O)[C@@H](N)CC(=O)O)C(C)C)C(C)C)[C@@H](C)CC)C(N)=O` [SEQ ID NO: 43], the solubility in “physchem” (setting [1]) is 18.9 mg/mL (≈ 5.21 mM); in the data set “physchem” (pH 7.7, Solubility [mg/mL] PBS pH7.7), 0.2 mg/mL (≈ 0.0552 mM). Moreover, at GLP-1R (Table 4, Aib variants of 9-40am Jant4 K40[C16], read-out: Bioactivity IC50), the IC50 was found to be 13 nM.
For the molecule `CCCCCCCCCCCCCCCC(=O)N[C@@H](CCC(=O)NCCOCCOCC(=O)NCCCC[C@H](NC(=O)[C@H](CO)NC(=O)[C@@H]1CCCN1C(=O)[C@@H]1CCCN1C(=O)[C@@H]1CCCN1C(=O)[C@H](C)NC(=O)CNC(=O)[C@H](CO)NC(=O)[C@H](CO)NC(=O)[C@@H]1CCCN1C(=O)CNC(=O)CNC(=O)[C@H](CCCNC(=N)N)NC(=O)[C@@H](NC(=O)[C@H](CC(C)C)NC(=O)[C@H](Cc1c[nH]c2ccccc12)NC(=O)[C@H](CCC(=O)O)NC(=O)[C@@H](NC(=O)[C@H](Cc1ccccc1)NC(=O)[C@H](CCC(=O)O)NC(=O)[C@H](CCCNC(=N)N)NC(=O)[C@@H](NC(=O)[C@H](C)NC(=O)[C@H](CCC(N)=O)NC(=O)[C@H](CCC(=O)O)NC(=O)[C@H](CCC(=O)O)NC(=O)[C@H](CC(C)C)NC(=O)[C@H](Cc1ccc(O)cc1)NC(=O)[C@H](CCCNC(=N)N)NC(=O)[C@H](CO)NC(=O)[C@@H](NC(=O)[C@@H](N)CC(=O)O)C(C)C)C(C)C)[C@@H](C)CC)C(C)C)C(=O)O)C(=O)O` [compound 16] (H-DVSRYLEEQAVREFIEWLVRGGPSSGAPPPSK([AEEA-γGlu-Palmitoyl])-OH; N-terminus assumed), the solubility in “physchem” (setting [2]) was greater than 20 mg/mL. Also, the IC50 at GLP-1R (setting [3]) turned out to be 18 nM.
For the molecule `CCCCCCCCCCCCCCCC(=O)N[C@@H](CCC(=O)NCCOCCOCC(=O)NCCOCCOCC(=O)NCCCC[C@H](NC(=O)[C@H](CO)NC(=O)[C@@H]1CCCN1C(=O)[C@@H]1CCCN1C(=O)[C@@H]1CCCN1C(=O)[C@H](C)NC(=O)CNC(=O)[C@H](CO)NC(=O)[C@H](CO)NC(=O)[C@@H]1CCCN1C(=O)CNC(=O)CNC(=O)[C@H](CCCCN)NC(=O)[C@@H](NC(=O)[C@H](CC(C)C)NC(=O)[C@H](Cc1c[nH]c2ccccc12)NC(=O)[C@H](C)NC(=O)[C@@H](NC(=O)[C@H](Cc1ccccc1)NC(=O)[C@H](CCC(=O)O)NC(=O)[C@H](CCCNC(=N)N)NC(=O)[C@@H](NC(=O)[C@H](C)NC(=O)[C@H](CCC(N)=O)NC(=O)[C@H](CCC(=O)O)NC(=O)[C@H](CCC(=O)O)NC(=O)[C@H](CC(C)C)NC(=O)[C@H](Cc1ccc(O)cc1)NC(=O)[C@H](CO)NC(=O)[C@H](CO)NC(=O)[C@@H](NC(=O)[C@@H](N)CC(=O)O)C(C)C)C(C)C)[C@@H](C)CC)C(C)C)C(N)=O)C(=O)O` [compound 48] (H-DVSSYLEEQAVREFIAWLVKGGPSSGAPPPSK([AEEA-AEEA-γGlu-Palmitoyl])-NH2; N-terminus assumed), in “physchem” (setting [1]), the solubility came to 9 mg/mL (≈ 2.22 mM). On GLP-1R (Table 2, C16 linker variants of 9-40amide Jant4 K40[X], read-out: Biactivity IC50), the IC50 amounted to 9 nM.
The molecule `CCCCCCCCCCCCCCCC(=O)NCCCC[C@H](NC(=O)[C@H](CO)NC(=O)[C@@H]1CCCN1C(=O)[C@@H]1CCCN1C(=O)[C@@H]1CCCN1C(=O)[C@H](C)NC(=O)CNC(=O)[C@H](CO)NC(=O)[C@H](CO)NC(=O)[C@@H]1CCCN1C(=O)CNC(=O)CNC(=O)[C@H](CCCCN)NC(=O)[C@@H](NC(=O)[C@H](CC(C)C)NC(=O)[C@H](Cc1c[nH]c2ccccc12)NC(=O)[C@H](C)NC(=O)[C@@H](NC(=O)[C@H](Cc1ccccc1)NC(=O)[C@H](CCC(=O)O)NC(=O)[C@H](CCCNC(=N)N)NC(=O)[C@H](NC(=O)[C@H](C)NC(=O)[C@H](CCC(N)=O)NC(=O)[C@H](CCC(=O)O)NC(=O)[C@H](CCC(=O)O)NC(=O)[C@H](CC(C)C)NC(=O)[C@H](Cc1ccc(O)cc1)NC(=O)[C@H](CO)NC(=O)[C@H](CO)NC(=O)[C@@H](NC(=O)[C@@H](N)CC(=O)O)C(C)C)C(C)C)[C@@H](C)CC)C(C)C)C(N)=O` [compound 50] (H-DVSSYLEEQA[dV]REFIAWLVKGGPSSGAPPPSK(Palmitoyl)-NH2) gave a solubility in the data set “physchem” (pH 7.7, Solubility [mg/mL] 80 mM/AmBicarb pH7.7) greater than 20 mg/mL. Besides, the IC50 at GLP-1R (Table 5, d-AA variants of 9-40am Jant4 K40[C16], read-out: Bioactivity KC50) was 124 nM.
With `CCCCCCCCCCCCCCCC(=O)NCCCC[C@H](NC(=O)[C@H](CO)NC(=O)[C@@H]1CCCN1C(=O)[C@@H]1CCCN1C(=O)[C@@H]1CCCN1C(=O)[C@H](C)NC(=O)CNC(=O)[C@H](CO)NC(=O)[C@H](CO)NC(=O)[C@@H]1CCCN1C(=O)CNC(=O)CNC(=O)[C@H](CCCNC(=N)N)NC(=O)[C@@H](NC(=O)[C@H](CC(C)C)NC(=O)[C@H](Cc1c[nH]c2ccccc12)NC(=O)[C@H](C)NC(=O)[C@@H](NC(=O)[C@H](Cc1ccccc1)NC(=O)[C@H](CCC(=O)O)NC(=O)[C@H](CCCNC(=N)N)NC(=O)[C@@H](NC(=O)[C@H](C)NC(=O)[C@H](CCC(N)=O)NC(=O)[C@H](CCC(=O)O)NC(=O)[C@H](CCC(=O)O)NC(=O)[C@H](CC(C)C)NC(=O)[C@H](Cc1ccc(O)cc1)NC(=O)[C@H](CO)NC(=O)[C@H](CO)NC(=O)[C@@H](NC(=O)[C@@H](N)CC(=O)O)C(C)C)C(C)C)[C@@H](C)CC)C(C)C)C(N)=O` [compound 69] (H-DVSSYLEEQAVREFIAWLVRGGPSSGAPPPSK(Palmitoyl)-NH2), the solubility in the data set “physchem” (setting [2]) is 13.7 mg/mL (≈ 3.73 mM). The IC50 at GLP-1R (setting [3]) was determined as 16 nM.
On the same counts, the results for `CCCCCCCCCCCCCCCC(=O)NCCCC[C@H](NC(=O)[C@H](CO)NC(=O)[C@@H]1CCCN1C(=O)[C@@H]1CCCN1C(=O)[C@@H]1CCCN1C(=O)[C@H](C)NC(=O)CNC(=O)[C@H](CO)NC(=O)[C@H](CO)NC(=O)[C@@H]1CCCN1C(=O)CNC(=O)CNC(=O)[C@H](CCCNC(=N)N)NC(=O)[C@@H](NC(=O)[C@H](CC(C)C)NC(=O)[C@H](Cc1c[nH]c2ccccc12)NC(=O)[C@H](C)NC(=O)[C@@H](NC(=O)[C@H](Cc1ccccc1)NC(=O)[C@H](CCC(=O)O)NC(=O)[C@H](CCCNC(=N)N)NC(=O)[C@@H](NC(=O)[C@H](C)NC(=O)[C@H](CCC(N)=O)NC(=O)[C@H](CCC(=O)O)NC(=O)[C@H](CCC(=O)O)NC(=O)[C@H](CC(C)C)NC(=O)[C@H](Cc1ccc(O)cc1)NC(=O)[C@H](CCCNC(=N)N)NC(=O)[C@H](CO)NC(=O)[C@@H](NC(=O)[C@@H](N)CC(=O)O)C(C)C)C(C)C)[C@@H](C)CC)C(C)C)C(N)=O` [compound 73] (H-DVSRYLEEQAVREFIAWLVRGGPSSGAPPPSK(Palmitoyl)-NH2; N-terminus assumed) are less than 0.1 mg/mL and 27 nM.
On the same counts, the results for `CCCCCCCCCCCCCCCC(=O)NCCCC[C@H](NC(=O)[C@H](CO)NC(=O)[C@@H]1CCCN1C(=O)[C@@H]1CCCN1C(=O)[C@@H]1CCCN1C(=O)[C@H](C)NC(=O)CNC(=O)[C@H](CO)NC(=O)[C@H](CO)NC(=O)[C@@H]1CCCN1C(=O)CNC(=O)CNC(=O)[C@H](CCCNC(=N)N)NC(=O)[C@@H](NC(=O)[C@H](CC(C)C)NC(=O)[C@H](Cc1c[nH]c2ccccc12)NC(=O)[C@H](CCC(=O)O)NC(=O)[C@@H](NC(=O)[C@H](Cc1ccccc1)NC(=O)[C@H](CCC(=O)O)NC(=O)[C@H](CCCNC(=N)N)NC(=O)[C@@H](NC(=O)[C@H](C)NC(=O)[C@H](CCC(N)=O)NC(=O)[C@H](CCC(=O)O)NC(=O)[C@H](CCC(=O)O)NC(=O)[C@H](CC(C)C)NC(=O)[C@H](Cc1ccc(O)cc1)NC(=O)[C@H](CCCNC(=N)N)NC(=O)[C@H](CO)NC(=O)[C@@H](NC(=O)[C@@H](N)CC(=O)O)C(C)C)C(C)C)[C@@H](C)CC)C(C)C)C(N)=O` [compound 74] (H-DVSRYLEEQAVREFIEWLVRGGPSSGAPPPSK(Palmitoyl)-NH2; N-terminus assumed) are greater than 20 mg/mL and 15 nM.
In the case of `CCCCCCCCCCCCCCCC(=O)N[C@@H](CCC(=O)NCCOCCOCC(=O)NCCCC[C@H](NC(=O)[C@H](CO)NC(=O)[C@@H]1CCCN1C(=O)[C@@H]1CCCN1C(=O)[C@@H]1CCCN1C(=O)[C@H](C)NC(=O)CNC(=O)[C@H](CO)NC(=O)[C@H](CO)NC(=O)[C@@H]1CCCN1C(=O)CNC(=O)CNC(=O)[C@@H](NC(=O)[C@H](CCCNC(=N)N)NC(=O)[C@H](CC(C)C)NC(=O)[C@H](Cc1c[nH]c2ccccc12)NC(=O)[C@H](CCC(=O)O)NC(=O)[C@@H](NC(=O)[C@H](Cc1ccccc1)NC(=O)[C@H](CCC(=O)O)NC(=O)[C@H](CCCNC(=N)N)NC(=O)[C@@H](NC(=O)[C@H](C)NC(=O)[C@H](CCC(N)=O)NC(=O)[C@H](CCC(=O)O)NC(=O)[C@H](CCC(=O)O)NC(=O)[C@H](CC(C)C)NC(=O)[C@H](Cc1ccc(O)cc1)NC(=O)[C@H](CO)NC(=O)[C@H](CO)NC(=O)[C@@H](NC(=O)[C@@H](N)CC(=O)O)C(C)C)C(C)C)[C@@H](C)CC)C(C)C)C(=O)O)C(=O)O` [compound 79], in the data set “physchem” (setting [2]), the solubility was greater than 20 mg/mL.
